Broadly, the IC50 is the midpoint of a concentration-inhibition curve. By inhibition is commonly meant the relative decrease from the control value, in per cent.

The target of assay [1] is T1, PKD (PKD1) (Homo sapiens, UniProt Q15139).
T1 construct: gene PRKD1
Description: in vitro kinase assay with purified recombinant kinase; also pS916 inhibition in PANC1 and HeLa cells. The format is biochemical.

A further assay concerns the target EGFR(T790M)(h) (Homo sapiens, UniProt P00533, T790M). Description: biochemical. Also on record: in vitro kinase selectivity panel, protein and lipid kinases, single concentration, ATP at Km. As to conditions: ATP at Km. As to the method: (§1) CRT0066101 was described previously ([48]) and was purchased for this study from Tocris, with a purity of 99.9%. CRT0066101 (XX-209) and compound XX-050 were synthesized as previously described ([68]). CRT0066051 (Y-095) was also synthesized as previously described ([69]). […] CRT0066101 can also be obtained in larger quantities from Ximbio. Inhibitors were tested in in vitro PKD kinase assays and cellular assays on PANC1 cells as previously described ([48]). The selectivity of the three PKD inhibitors was determined against a panel of protein and lipid kinases by Eurofins and the MRC PPU International Centre for Kinase Profiling (http://www.kinase-screen.mrc.ac.uk), respectively. Each inhibitor was tested at a single concentration of 1 μM and at an ATP concentration equivalent to the Km for each kinase. Having shown that HRV infection appears to activate PKD, we went on to explore the influence of chemical inhibitors of PKD on HRV replication. The compound CRT0066101 is a specific and potent PKD inhibitor that has been used in studies exploring its potential as an anticancer target ([48], [51]). This inhibitor has a 50% inhibitory concentration (IC50) of 1 nM against purified PKD in biochemical assays and a 50% effective concentration (EC50) of 1 μM in a cell-based assay (Table 1). We pretreated HeLa cells with increasing concentrations of the drug for 1 h followed by infection with HRV16. Viral replication was subsequently measured at 6 hpi by quantitative real-time PCR (qRT-PCR) (Fig. 2A) and by Western blotting using an antibody against the viral nonstructural protein 2C (Fig. 2B). […] Furthermore, we tested two novel and structurally different PKD inhibitors (CRT0066051 and XX-050) (Table 1) and confirmed that they too inhibited HRV 2C expression although with different potencies (Fig. 2D). Kinase selectivity profiling of all three PKD inhibitors was performed against a panel of protein and lipid kinases at a drug concentration of 1 μM and at an ATP concentration equivalent to the Km of each kinase (see Table S1 in the supplemental material). […] Since PKD is known to be involved in regulating the architecture of the Golgi apparatus, we confirmed the pharmacodynamic effect of these inhibitors by demon

A further assay concerns the target LIMK1(h) (Homo sapiens, UniProt P53667). Description: biochemical. As to conditions: ATP at Km. More on the design: in vitro kinase selectivity panel, protein and lipid kinases, single concentration, ATP at Km. The method, then:
as §1

The target of another assay is FGFR2(h) (Homo sapiens, UniProt P21802). Description: biochemical. Also on record: in vitro kinase selectivity panel, protein and lipid kinases, single concentration, ATP at Km. As to conditions: ATP at Km. The method, then: as §1
In the next assay the target is T2, CaMKIV(h) (Homo sapiens, UniProt Q16566).
T2 construct: gene CAMK4
Description: biochemical. Also on record: in vitro kinase selectivity panel, protein and lipid kinases, single concentration, ATP at Km. As to conditions: ATP at Km. The method, then: as §1

For another assay, the target named is T3, Abl(h) (Homo sapiens, UniProt P00519).
T3 construct: gene ABL1
Description: biochemical. More on the design: in vitro kinase selectivity panel, protein and lipid kinases, single concentration, ATP at Km. As to conditions: ATP at Km. As to the method:
as §1

The next assay concerns the target T4, CK1γ2(h) (Homo sapiens, UniProt P78368).
T4 construct: gene CSNK1G2
Description: biochemical. Also on record: in vitro kinase selectivity panel, protein and lipid kinases, single concentration, ATP at Km. As to conditions: ATP at Km. The method, then:
as §1

The next assay addresses T5, PKCβI(h) (Homo sapiens, UniProt P05771).
T5 construct: gene PRKCB; isoform beta I
Description: biochemical. Also on record: in vitro kinase selectivity panel, protein and lipid kinases, single concentration, ATP at Km. As to conditions: ATP at Km. As to the method: as §1

The next assay has as its target Flt3(h) (Homo sapiens, UniProt P36888). Description: biochemical. More on the design: in vitro kinase selectivity panel, protein and lipid kinases, single concentration, ATP at Km. As to conditions: ATP at Km. As to the method: as §1
The next assay concerns the target ALK(h) (Homo sapiens, UniProt Q9UM73). Description: biochemical. Also on record: in vitro kinase selectivity panel, protein and lipid kinases, single concentration, ATP at Km. As to conditions: ATP at Km. As to the method:
as §1

The target of the next assay is PAK2(h) (Homo sapiens, UniProt Q13177). Description: biochemical. More on the design: in vitro kinase selectivity panel, protein and lipid kinases, single concentration, ATP at Km. As to conditions: ATP at Km. As to the method: as §1
A further assay has as its target DGKZ (Homo sapiens, UniProt Q13574). Description: biochemical. Also on record: in vitro kinase selectivity panel, protein and lipid kinases, single concentration, ATP at Km. As to conditions: ATP at Km. The method, then: as §1
Another assay deals with T6, ARK5(h) (Homo sapiens, UniProt O60285).
T6 construct: gene NUAK1
Description: biochemical. More on the design: in vitro kinase selectivity panel, protein and lipid kinases, single concentration, ATP at Km. As to conditions: ATP at Km. The method, then:
as §1

The next assay concerns the target PIK3CA (Homo sapiens, UniProt P42336). Description: biochemical. Also on record: in vitro kinase selectivity panel, protein and lipid kinases, single concentration, ATP at Km. As to conditions: ATP at Km. The method, then: as §1
A further assay addresses T7, CK1γ1(h) (Homo sapiens, UniProt Q9HCP0).
T7 construct: gene CSNK1G1
Description: biochemical. Also on record: in vitro kinase selectivity panel, protein and lipid kinases, single concentration, ATP at Km. As to conditions: ATP at Km. As to the method:
as §1

A further assay has as its target T8, PKCδ(h) (Homo sapiens, UniProt Q05655).
T8 construct: gene PRKCD
Description: biochemical. Also on record: in vitro kinase selectivity panel, protein and lipid kinases, single concentration, ATP at Km. As to conditions: ATP at Km. As to the method: as §1

The target of a further assay is T9, MEK1(h) (Homo sapiens, UniProt Q02750).
T9 construct: gene MAP2K1
T9 sequence (Q02750 whole entry): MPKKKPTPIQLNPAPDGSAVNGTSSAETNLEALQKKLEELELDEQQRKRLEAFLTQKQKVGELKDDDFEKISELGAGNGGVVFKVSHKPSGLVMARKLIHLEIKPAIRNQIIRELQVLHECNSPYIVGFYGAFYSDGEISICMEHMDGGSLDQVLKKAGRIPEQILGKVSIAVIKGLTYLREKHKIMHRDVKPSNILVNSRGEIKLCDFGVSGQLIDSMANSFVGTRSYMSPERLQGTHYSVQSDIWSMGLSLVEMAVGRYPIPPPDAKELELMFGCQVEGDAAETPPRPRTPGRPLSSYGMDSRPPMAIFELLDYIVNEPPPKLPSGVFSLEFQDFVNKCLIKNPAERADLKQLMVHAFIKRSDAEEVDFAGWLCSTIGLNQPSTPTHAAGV
Description: biochemical. More on the design: in vitro kinase selectivity panel, protein and lipid kinases, single concentration, ATP at Km. As to conditions: ATP at Km. As to the method:
as §1

For assay [2], the target named is T1, PKD (PKD1). Description: biochemical. More on the design: in vitro kinase selectivity panel, protein and lipid kinases, single concentration, ATP at Km. As to conditions: ATP at Km. As to the method: as §1

T1 sequence (Q15139 whole entry): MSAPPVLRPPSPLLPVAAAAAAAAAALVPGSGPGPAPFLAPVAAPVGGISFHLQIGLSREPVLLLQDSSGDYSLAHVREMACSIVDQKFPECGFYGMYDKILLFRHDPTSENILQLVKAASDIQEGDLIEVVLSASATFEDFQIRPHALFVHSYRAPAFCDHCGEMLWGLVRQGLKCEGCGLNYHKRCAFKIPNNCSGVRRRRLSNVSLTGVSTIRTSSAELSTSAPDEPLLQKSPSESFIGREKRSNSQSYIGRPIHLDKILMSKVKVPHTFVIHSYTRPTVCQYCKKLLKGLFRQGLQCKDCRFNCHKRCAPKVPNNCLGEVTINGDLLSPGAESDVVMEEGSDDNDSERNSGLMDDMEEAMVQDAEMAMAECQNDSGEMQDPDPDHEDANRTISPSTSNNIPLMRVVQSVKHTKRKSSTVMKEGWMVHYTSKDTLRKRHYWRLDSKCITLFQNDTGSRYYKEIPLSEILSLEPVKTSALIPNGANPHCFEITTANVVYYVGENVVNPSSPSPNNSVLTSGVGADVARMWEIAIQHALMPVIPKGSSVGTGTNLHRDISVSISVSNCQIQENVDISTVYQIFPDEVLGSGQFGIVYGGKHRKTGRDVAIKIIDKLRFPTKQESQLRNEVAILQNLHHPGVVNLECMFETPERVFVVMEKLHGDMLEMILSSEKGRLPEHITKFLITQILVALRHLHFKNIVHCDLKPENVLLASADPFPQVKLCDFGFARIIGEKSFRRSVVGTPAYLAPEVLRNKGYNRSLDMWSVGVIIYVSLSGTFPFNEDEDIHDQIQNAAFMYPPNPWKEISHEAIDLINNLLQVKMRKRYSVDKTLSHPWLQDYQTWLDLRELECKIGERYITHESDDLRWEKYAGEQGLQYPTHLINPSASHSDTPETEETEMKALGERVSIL
Sequence of EGFR(T790M)(h) (P00533 whole entry T790M): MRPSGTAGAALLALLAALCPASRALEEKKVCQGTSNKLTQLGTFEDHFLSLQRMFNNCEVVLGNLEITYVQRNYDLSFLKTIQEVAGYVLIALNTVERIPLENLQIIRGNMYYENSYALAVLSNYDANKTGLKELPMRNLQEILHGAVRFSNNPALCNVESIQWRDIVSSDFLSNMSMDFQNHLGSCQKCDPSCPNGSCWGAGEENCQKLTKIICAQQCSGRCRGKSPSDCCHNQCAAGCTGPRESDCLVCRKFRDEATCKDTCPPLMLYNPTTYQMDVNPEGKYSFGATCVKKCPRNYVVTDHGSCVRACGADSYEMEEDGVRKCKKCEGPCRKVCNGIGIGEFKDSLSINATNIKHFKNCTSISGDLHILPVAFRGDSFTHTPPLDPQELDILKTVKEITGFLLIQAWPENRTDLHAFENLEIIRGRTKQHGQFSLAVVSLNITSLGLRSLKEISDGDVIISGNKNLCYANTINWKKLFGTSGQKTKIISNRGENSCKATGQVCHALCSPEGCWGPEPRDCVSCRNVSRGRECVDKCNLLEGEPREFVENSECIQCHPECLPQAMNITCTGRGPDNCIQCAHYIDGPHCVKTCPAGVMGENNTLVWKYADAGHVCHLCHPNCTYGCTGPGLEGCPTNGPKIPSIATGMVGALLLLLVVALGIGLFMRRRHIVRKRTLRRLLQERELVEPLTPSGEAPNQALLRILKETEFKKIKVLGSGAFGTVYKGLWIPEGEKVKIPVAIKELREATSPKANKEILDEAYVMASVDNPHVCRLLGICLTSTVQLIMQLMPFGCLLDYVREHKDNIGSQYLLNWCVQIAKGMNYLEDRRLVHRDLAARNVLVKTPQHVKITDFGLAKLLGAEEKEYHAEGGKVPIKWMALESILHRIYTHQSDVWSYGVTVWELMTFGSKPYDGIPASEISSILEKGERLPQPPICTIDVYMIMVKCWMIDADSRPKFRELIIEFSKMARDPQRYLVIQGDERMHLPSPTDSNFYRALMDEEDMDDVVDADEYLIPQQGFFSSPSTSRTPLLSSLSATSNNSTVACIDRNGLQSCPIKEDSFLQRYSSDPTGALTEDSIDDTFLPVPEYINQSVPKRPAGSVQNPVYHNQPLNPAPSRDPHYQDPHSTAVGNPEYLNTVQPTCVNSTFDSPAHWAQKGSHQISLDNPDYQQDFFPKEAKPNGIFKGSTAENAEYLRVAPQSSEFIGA
T7 sequence (Q9HCP0 whole entry): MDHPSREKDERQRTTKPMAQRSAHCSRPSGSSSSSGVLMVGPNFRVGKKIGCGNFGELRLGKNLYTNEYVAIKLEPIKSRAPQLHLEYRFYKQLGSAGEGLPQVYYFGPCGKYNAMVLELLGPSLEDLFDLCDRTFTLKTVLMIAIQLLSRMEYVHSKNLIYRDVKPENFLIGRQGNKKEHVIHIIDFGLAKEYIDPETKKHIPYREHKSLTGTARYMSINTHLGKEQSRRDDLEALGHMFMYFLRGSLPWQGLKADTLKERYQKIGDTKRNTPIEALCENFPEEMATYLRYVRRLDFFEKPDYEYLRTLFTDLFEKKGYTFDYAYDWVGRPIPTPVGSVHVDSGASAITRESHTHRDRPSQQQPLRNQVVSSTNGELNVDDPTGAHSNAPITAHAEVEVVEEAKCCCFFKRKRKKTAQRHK
Sequence of DGKZ (Q13574 whole entry): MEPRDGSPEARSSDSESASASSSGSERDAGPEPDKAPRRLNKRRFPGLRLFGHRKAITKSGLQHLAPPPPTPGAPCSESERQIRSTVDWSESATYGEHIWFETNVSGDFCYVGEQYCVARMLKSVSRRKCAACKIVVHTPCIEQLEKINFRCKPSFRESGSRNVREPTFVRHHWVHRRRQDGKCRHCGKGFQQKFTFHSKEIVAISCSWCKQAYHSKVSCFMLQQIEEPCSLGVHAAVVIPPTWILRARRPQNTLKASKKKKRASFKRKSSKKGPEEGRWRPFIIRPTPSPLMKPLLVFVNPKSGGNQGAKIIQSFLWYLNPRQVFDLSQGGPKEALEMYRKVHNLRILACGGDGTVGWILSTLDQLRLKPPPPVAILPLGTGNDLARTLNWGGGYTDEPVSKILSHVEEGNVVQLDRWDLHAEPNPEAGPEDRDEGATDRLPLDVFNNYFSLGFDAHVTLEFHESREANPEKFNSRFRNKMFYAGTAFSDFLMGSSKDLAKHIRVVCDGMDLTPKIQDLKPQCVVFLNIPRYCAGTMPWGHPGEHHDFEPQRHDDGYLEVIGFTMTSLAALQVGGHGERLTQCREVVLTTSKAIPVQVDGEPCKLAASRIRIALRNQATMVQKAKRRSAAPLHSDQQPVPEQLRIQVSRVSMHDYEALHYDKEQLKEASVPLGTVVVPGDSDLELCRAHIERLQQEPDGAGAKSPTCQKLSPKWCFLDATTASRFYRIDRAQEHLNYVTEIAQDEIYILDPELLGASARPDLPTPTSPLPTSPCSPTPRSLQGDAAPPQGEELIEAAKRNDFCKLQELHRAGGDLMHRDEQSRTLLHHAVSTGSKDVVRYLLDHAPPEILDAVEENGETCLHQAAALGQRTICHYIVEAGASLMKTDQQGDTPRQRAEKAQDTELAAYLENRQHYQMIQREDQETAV
Sequence of PIK3CA (P42336 whole entry): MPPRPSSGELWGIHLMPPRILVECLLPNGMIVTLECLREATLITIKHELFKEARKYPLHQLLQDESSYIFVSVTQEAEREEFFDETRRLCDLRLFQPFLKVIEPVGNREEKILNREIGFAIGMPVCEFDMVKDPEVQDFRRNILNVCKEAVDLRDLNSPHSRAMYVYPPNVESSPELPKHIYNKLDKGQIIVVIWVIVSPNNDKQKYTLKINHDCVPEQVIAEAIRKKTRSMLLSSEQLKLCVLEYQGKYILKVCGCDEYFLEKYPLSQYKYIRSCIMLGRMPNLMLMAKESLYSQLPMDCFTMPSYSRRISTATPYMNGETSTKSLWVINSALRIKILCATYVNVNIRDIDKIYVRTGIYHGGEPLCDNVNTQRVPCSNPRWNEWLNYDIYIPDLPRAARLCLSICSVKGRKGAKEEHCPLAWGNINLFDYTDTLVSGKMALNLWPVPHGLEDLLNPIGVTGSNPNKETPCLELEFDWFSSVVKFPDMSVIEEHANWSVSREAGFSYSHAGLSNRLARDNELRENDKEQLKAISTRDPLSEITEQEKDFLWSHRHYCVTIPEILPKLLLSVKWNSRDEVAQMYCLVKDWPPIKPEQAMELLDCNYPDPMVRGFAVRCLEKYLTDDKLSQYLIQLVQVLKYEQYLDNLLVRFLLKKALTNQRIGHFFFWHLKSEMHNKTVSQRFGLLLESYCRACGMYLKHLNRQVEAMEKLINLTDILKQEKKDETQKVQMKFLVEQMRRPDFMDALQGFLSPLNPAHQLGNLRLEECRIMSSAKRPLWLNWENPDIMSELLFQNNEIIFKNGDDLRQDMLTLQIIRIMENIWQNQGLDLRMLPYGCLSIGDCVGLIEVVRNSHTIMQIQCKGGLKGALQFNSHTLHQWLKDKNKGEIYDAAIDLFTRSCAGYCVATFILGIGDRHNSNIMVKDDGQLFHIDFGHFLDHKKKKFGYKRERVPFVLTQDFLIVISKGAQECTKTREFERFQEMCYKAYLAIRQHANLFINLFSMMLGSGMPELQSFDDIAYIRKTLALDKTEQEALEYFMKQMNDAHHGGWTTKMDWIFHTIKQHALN

`CC[C@@H](N)CNc1ccnc(-c2cc(-c3cnn(C)c3)ccc2O)n1` [CRT0066101]: on PKD (PKD1) [1], the half-maximal inhibitory concentration (IC50) was found to be 1 nM. The inhibition at 1 µM against EGFR(T790M)(h) was -2%; against LIMK1(h) it was 0%; against FGFR2(h) it was 5%; at CaMKIV(h), 26%; against Abl(h) it was -13%; against CK1γ2(h) it was 0%. Besides, the inhibition at 1 µM was 11% on PKCβI(h); 4% against Flt3(h); 3% against ALK(h); 9% at PAK2(h); -1% against DGKZ; 49% at ARK5(h). The inhibition at 1 µM is 1% against PIK3CA; -5% on CK1γ1(h); 28% against PKCδ(h); 9% against MEK1(h); 98% on PKD (PKD1) [2].

For the origin of these results see PMC5391474, “Investigation of the Role of Protein Kinase D in Human Rhinovirus Replication” (Journal of Virology, 2017).
